The nature of data set [1]: Clearance in Wistar rat at 3 mg/kg, iv. In kind it is ADME, organism-based. Also on record: dose 3 mg/kg, route intravenous. As to conditions: in vivo; call rule not given here.
Data set [2] can be described thus: Half life in Wistar rat at 3 mg/kg, iv. In kind it is ADME, organism-based. Also on record: dose 3 mg/kg, route intravenous. Particulars: in vivo.
Data set [3] is described as follows: Volume of distribution in Wistar rat at 3 mg/kg, iv. In kind it is ADME, organism-based. Set-up: dose 3 mg/kg, route intravenous. Particulars: in vivo, read-out: Vss.
A short description of data set [4]: Half life in Wistar rat at 10 mg/kg, po. Set-up: dose 10 mg/kg, route oral. As to conditions: in vivo. In kind it is ADME, organism-based.
The nature of data set [5]: AUC in Wistar rat at 10 mg/kg, po. In kind it is ADME, organism-based. Set-up: dose 10 mg/kg, route oral. As to conditions: plasma.
The subject of the next data set is Liver microsomes. Description: Metabolic stability in Wistar rat liver microsome. In kind it is ADME. A general note: Microsomes from liver hold many membrane-bound enzymes, among them those of drug oxidation.
Another data set relates to Rattus norvegicus. Description: Plasma concentration in Wistar rat at 10 mg/kg, po. Set-up: dose 10 mg/kg, route oral. In kind it is ADME, organism-based. Particulars: in vivo.
Data set [6] is described as follows: Oral bioavailability in Wistar rat at 10 mg/kg, po. In kind it is ADME, organism-based. Particulars: in vivo.
Data set [7] in a line: Cmax in Wistar rat at 10 mg/kg, po. In kind it is ADME, organism-based. Set-up: dose 10 mg/kg, route oral. As to conditions: in vivo.

As usually defined, the clearance is a measure of how efficiently the substance is removed, as volume per time. The low end stands for inefficient removal, the high end for efficient removal. By half-life is commonly meant the time in which the quantity being followed falls by half. Read a high half-life as slow decline. What is called AUC is concentration integrated over time. Read a high AUC as high exposure. What is called bioavailability is dose-corrected exposure relative to a reference, in per cent. A low value points to little systemic uptake. One may read the Cmax as the peak of the concentration-time curve. Consider `COc1ccc(NCCNC(=O)[C@H](CC2CCCCC2)Nc2nc3ccccc3o2)cc1`, for which the clearance in [1] was 11.4 mL/min/kg. Further, the figures for the half-life in data set [2] and in data set [4] were 288 min and 318 min, respectively. Moreover, the Vd in data set [3] was found to be 1.63 L/kg. The AUC in data set [5] is 15 ng·h/mL. The Stability in the data set on Liver microsomes is < 5%. The Cp entry in the data set on Rattus norvegicus is recorded as “Not Active”. The bioavailability in data set [6] was < 1%. In data set [7], the Cmax amounted to 12 nM.

In the case of `C[C@@H](CN1CCc2cc(F)ccc21)NC(=O)[C@H](CC1CCCCC1)Nc1nc2cccc(Cl)c2o1`, in [1], the clearance stood at 33.1 mL/min/kg. Moreover, the half-life in [2] is 138 min; in data set [4], 66 min. Further, the Vd in data set [3] is 2.57 L/kg. The same compound gave an AUC in [5] of 1080 ng·h/mL. This compound also had a bioavailability in [6] of 24%. This compound also displayed a Cmax in data set [7] of 703 nM.

Regarding `C[C@@H](CN1c2ccc(F)cc2CC1(C)C)NC(=O)[C@H](CC1CCCCC1)Nc1nc2cccc(Cl)c2o1`, in data set [4], the half-life was 246 min. The compound also had an AUC in data set [5] of 900 ng·h/mL.

`O=C(O)C[C@@H](CN1CCc2cc(F)ccc21)NC(=O)[C@H](CC1CCCCC1)Nc1nc2ccc(Cl)cc2o1` returned a clearance in data set [1] of 23.2 mL/min/kg. The compound also gave a half-life in data set [2] of 60 min. Also, in data set [3], the Vd amounted to 0.74 L/kg. The concentration in the data set on Rattus norvegicus is > 1000 nM.

Compound `CCOC(=O)C[C@@H](CN1CCc2cc(F)ccc21)NC(=O)[C@H](CC1CCCCC1)Nc1nc2ccc(Cl)cc2o1` gave a half-life in data set [4] of 60 min. The compound further gave an AUC in [5] of 1580 ng·h/mL. For the same compound, the Cp result in the data set with Rattus norvegicus is “Not Active”. Moreover, in [6], the bioavailability stood at 22%. The compound further gave a peak concentration (Cmax) in data set [7] of 1100 nM.

In turn, `C[C@@H](CN1CC(C)(C)c2cc(F)ccc21)NC(=O)[C@H](CC1CCCCC1)Nc1nc2cccc(Cl)c2o1` displayed a clearance in data set [1] of 10.1 mL/min/kg. For the same compound, the half-life in [2] was 498 min; in [4], 306 min. For the same compound, the Vd in data set [3] was 0.9 L/kg. Besides, the AUC in data set [5] was 2400 ng·h/mL. In addition, in data set [6], the bioavailability stood at 15%. The compound also came in with a Cmax in [7] of 1260 nM.

The record behind these values is ChEMBL document CHEMBL1146936, “Synthesis and evaluation of arylaminoethyl amides as noncovalent inhibitors of cathepsin S. Part 3: heterocyclic P3” (Bioorg Med Chem Lett, 2006).
